Among the data in patent publication US9951088B2, “D2 receptor modulators and methods of use thereof in the treatment of diseases and disorders” (SUNOVION PHARMACEUTICALS INC., priority 2012, dated 2018) are IC50, Emax and EC50 values, retold here.

The IC50 is the concentration at which inhibition is half-maximal. Low readings indicate greater potency in that assay, high ones weaker potency in that assay. By EC50 is commonly meant the concentration needed to bring the measured effect to its halfway point. High values mean a less potent agent, low ones a more potent agent.

The target in assay [1] is T1, long isoform of human D2 receptor (Homo sapiens, UniProt P14416). The assay is described as follows: Arrestin Antagonist Assay (DRD2L PathHunter CHO-K1 cells, vs EC80 dopamine). The following applies: for Emax: CHO-K1, read-out: β-arrestin (antagonist mode) Imax.
Assay [2] addresses T1, long isoform of human D2 receptor. The assay is described as follows: cAMP HTRF Agonist Assay (DRD2L PathHunter CHO-K1 cells, forskolin-stimulated). Particulars: for Emax: CHO-K1, read-out: cAMP (agonist mode) Emax.
Method: Cell Lines: Activities of the compounds were assessed using a Chinese Hamster Ovary (CHO—K1) cell line that recombinantly expressed the long isoform of human D2 receptor (DRD2L PathHunter cells). The D2 receptor DNA sequence was modified to contain a “ProLink” at its C-terminus which allowed complementation with an “enzyme acceptor” (EA)-tagged β-arrestin protein. The recruitment of the O-arrestin by the D2 receptor led to complementation of the ProLink and EA and formation of active β-galactosidase which generated a D2-specific signal that was measured. The cAMP assay was measured in the same D2-expressing cell line. The D2 receptor inhibited cAMP formation so that the basal levels of cAMP were increased by the addition of an adenylate cyclase stimulator, forskolin.
cAMP HTRF Agonist Assay: Two days prior to testing, a vial of high density stock of DRD2L PathHunter cells was thawed, and cells were diluted into 10 mL of growth media (Ham's F12/10% HI FBS/1% PSG) and used to seed a T225 flask containing 50 mL of growth media. Cells were cultured for 2 days.
On the day of the assay, cells were dissociated in 5 mL cell dissociation buffer (enzyme free—Invitrogen) for 10-15 minutes at 37° C. Dissociated cells were diluted with 10 mL of growth media and counted. Cell counts were routinely ˜2×10^7 per T225. Cells were then pelleted at 1500 rpm for 5 min. Supernatant was aspirated, and cells were re-suspended in HBSS/20 mM Hepes, pH 7.4 to a cell density of 1×10^6/mL.
cAMP levels were determined using the Cisbio HTRF method. HRTF reagents (cAMP-HTRF acceptor fluorophore (d2) conjugate and cryptate-labeled anti-cAMP antibody) were prepared according to maunfacturers instructions. 5 μL of each were added to each well of an assay plate and incubated for 1 h at RT. The plate was then read on an Envision reader using the HTRF protocol, and data were exported for analysis.
(§1) The agonist Emax results were expressed as a percent of the dopamine control response ((measured specific response/control specific agonist response)×100) obtained in the presence of test article. The EC50 values (concentration producing a half-maximal specific response) were determined by non-linear regression analysis of the concentration-response curves.
For assay [3] the target is unchanged. Description: Arrestin Agonist Assay (DRD2L PathHunter CHO-K1 cells, β-arrestin recruitment). Particulars: for Emax: CHO-K1, read-out: β-arrestin (agonist mode) Emax.
Method: Cell Lines: Activities of the compounds were assessed using a Chinese Hamster Ovary (CHO—K1) cell line that recombinantly expressed the long isoform of human D2 receptor (DRD2L PathHunter cells). The D2 receptor DNA sequence was modified to contain a “ProLink” at its C-terminus which allowed complementation with an “enzyme acceptor” (EA)-tagged β-arrestin protein. The recruitment of the O-arrestin by the D2 receptor led to complementation of the ProLink and EA and formation of active β-galactosidase which generated a D2-specific signal that was measured.
Arrestin Agonist Assay: One day prior to testing, a vial of high density stock of DRD2L PathHunter cells was thawed, and 1×10^7 cells diluted into 40 mL of growth media (Ham's F12/10% HI FBS/1% PSG). 20 μL cells per well were seeded directly into assay plates, and the plates were allowed to rest for 1 h at RT before incubating in a plate incubator overnight.
5 μL diluted compound was added to cells in each well, and the assay plate was incubated for 90 min at 37° C. 12.5 μL PathHunter detection reagent was added to each well of the assay plate, which was then covered and incubated for 1 h at RT. The plate was read on an Envision reader using the Luminescence protocol, and the data were exported for analysis.
as §1

Molecules are shown by their SMILES.

T1 sequence (P14416 whole entry, canonical isoform): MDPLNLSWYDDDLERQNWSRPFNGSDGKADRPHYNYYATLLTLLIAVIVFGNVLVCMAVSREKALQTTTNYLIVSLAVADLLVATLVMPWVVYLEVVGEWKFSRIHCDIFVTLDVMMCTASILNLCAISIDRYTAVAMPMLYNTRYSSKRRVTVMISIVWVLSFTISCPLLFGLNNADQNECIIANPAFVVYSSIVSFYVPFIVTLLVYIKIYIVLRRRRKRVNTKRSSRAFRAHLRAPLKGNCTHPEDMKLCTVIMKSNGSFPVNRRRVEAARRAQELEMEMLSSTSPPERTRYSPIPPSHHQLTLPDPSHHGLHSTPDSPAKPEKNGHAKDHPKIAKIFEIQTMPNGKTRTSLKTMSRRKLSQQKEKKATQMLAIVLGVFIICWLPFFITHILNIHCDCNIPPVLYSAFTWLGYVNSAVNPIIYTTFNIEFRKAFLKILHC

`O=C1CCc2ccc(OCCCCN3CCc4ncncc4C3)cc2N1` [Compound 23, 7-(4-(7,8-dihydropyrido[4,3-d]pyrimidin-6(5H)-yl)butoxy)-3,4-dihydroquinolin-2(1H)-one]: in assay [1], the IC50 lay in the range of 1000 to 10000 nM and the Emax lay within 25 to 50%. Also, in assay [2], the IC50 fell in the range of 100 to 1000 nM and the Emax lay within 50 to 75%. Further, in assay [3], the 50% effective concentration (EC50) fell in the range of 100 to 1000 nM and the Emax lay within 10 to 25%.
As to `Cn1cc2c(n1)CCN(CCCCOc1ccc3c(c1)NC(=O)CC3)C2` [Compound 24, 7-(4-(2-methyl-6,7-dihydro-2H-pyrazolo[4,3-c]pyridin-5(4H)-yl)butoxy)-3,4-dihydroquinolin-2(1H)-one], in assay [1], the IC50 was 1000 to 10000 nM and the Emax lay in the range of 25 to 50%. For the same compound, in assay [2], the IC50 is 10 to 100 nM and the Emax is over 75%. In addition, in assay [3], the EC50 is 100 to 1000 nM and the Emax fell in the range of 25 to 50%.
Regarding `O=C1CCc2ccc(OCCCCN3CCc4nccnc4C3)cc2N1` [Compound 25, 7-(4-(7,8-dihydropyrido[3,4-b]pyrazin-6(5H)-yl)butoxy)-3,4-dihydroquinolin-2(1H)-one], the IC50 in assay [1] and in assay [2] was 1000 to 10000 nM in each case. Besides, the Emax in assay [1] lay within 25 to 50%; in assay [2], 50 to 75%; in assay [3], 25 to 50%. Moreover, in assay [3], the EC50 fell in the range of 100 to 1000 nM.
For `O=C1CCc2ccc(OCCCCN3CCc4ncsc4C3)cc2N1` [Compound 26, 7-(4-(6,7-dihydrothiazolo[5,4-c]pyridin-5(4H)-yl)butoxy)-3,4-dihydroquinolin-2(1H)-one], in assay [1], the IC50 lay in the range of 1000 to 10000 nM and the Emax is over 75%. Moreover, in assay [2], the IC50 was 10 to 100 nM and the Emax lay within 25 to 50%. In assay [3], the EC50 was under 10 nM and the Emax was 10 to 25%.
For the compound `O=C1CCc2ccc(OCCCCN3CCc4sccc4C3)cc2N1` [Compound 27, 7-(4-(6,7-dihydrothieno[3,2-c]pyridin-5(4H)-yl)butoxy)-3,4-dihydroquinolin-2(1H)-one], in assay [1], the IC50 lay in the range of 10 to 100 nM and the Emax was over 75%. Also, in assay [2], the IC50 is under 10 nM and the Emax lay within 10 to 25%. Moreover, in assay [3], the EC50 is over 10000 nM and the Emax is under 10%.
Regarding `O=C1CCc2ccc(OCCCCN3CCc4ccsc4C3)cc2N1` [Compound 28, 7-(4-(4,5-dihydrothieno[2,3-c]pyridin-6(7H)-yl)butoxy)-3,4-dihydroquinolin-2(1H)-one], the IC50 in assay [1] was 100 to 1000 nM; in assay [2], under 10 nM. The Emax in assay [1] is over 75%; in assay [2], 10 to 25%; in assay [3] it was under 10%. This compound also came in with an EC50 in assay [3] of over 10000 nM.
Turning to `CN(C)c1ncnc2c1CCN(CCCCOc1ccc3c(c1)NC(=O)CC3)C2` [Compound 29, 7-(4-(4-(dimethylamino)-5,6-dihydropyrido[3,4-d]pyrimidin-7(8H)-yl)butoxy)-3,4-dihydroquinolin-2(1H)-one], the results for the IC50 in assay [1] and in assay [2] were 100 to 1000 nM and 10 to 100 nM, respectively. In addition, the Emax was over 75% in assay [1], 25 to 50% in assay [2] and 25 to 50% in assay [3]. In addition, the EC50 in assay [3] was in the range of 100 to 1000 nM.
In the case of `O=C1CCc2ccc(OCCCCN3CCc4nn(-c5ccccc5)cc4C3)cc2N1` [Compound 30, 7-(4-(2-phenyl-6,7-dihydro-2H-pyrazolo[4,3-c]pyridin-5(4H)-yl)butoxy)-3,4-dihydroquinolin-2(1H)-one], the half-inhibitory concentration (IC50) in assay [1] and in assay [2] was 10 to 100 nM throughout. The Emax was over 75% in assay [1], 25 to 50% in assay [2] and 10 to 25% in assay [3]. The compound further displayed an EC50 in assay [3] of under 10 nM.
For the compound `O=C1CCc2ccc(OCCCCN3CCc4c(cnn4-c4ccccc4)C3)cc2N1` [Compound 31, 7-(4-(1-phenyl-6,7-dihydro-1H-pyrazolo[4,3-c]pyridin-5(4H)-yl)butoxy)-3,4-dihydroquinolin-2(1H)-one], in assay [1], the IC50 was over 10000 nM and the Emax was under 10%. Also, in assay [2], the half-maximal inhibitory concentration (IC50) is under 10 nM and the Emax was over 75%. Moreover, in assay [3], the EC50 was under 10 nM and the Emax is over 75%.
For `O=C1CCc2ccc(OCCCCN3CCc4c(cnn4-c4cccc(Cl)c4)C3)cc2N1` [Compound 32, 7-(4-(1-(3-chlorophenyl)-6,7-dihydro-1H-pyrazolo[4,3-c]pyridin-5(4H)-yl)butoxy)-3,4-dihydroquinolin-2(1H)-one], in assay [1], the IC50 was under 10 nM and the Emax is over 75%. Further, in assay [2], the IC50 is over 10000 nM and the Emax is under 10%. In assay [3], the concentration giving a half-maximal response (EC50) was over 10000 nM and the Emax was under 10%.
As to `O=C1CCc2ccc(OCCCCN3CCn4cncc4C3)cc2N1` [Compound 33, 7-(4-(5,6-dihydroimidazo[1,5-a]pyrazin-7(8H)-yl)butoxy)-3,4-dihydroquinolin-2(1H)-one], in assay [1], the IC50 was in the range of 1000 to 10000 nM and the Emax lay in the range of 50 to 75%. In assay [2], the IC50 is over 10000 nM and the Emax was under 10%. For the same compound, in assay [3], the EC50 is over 10000 nM and the Emax was under 10%.
In the case of `CCn1cc2c(n1)CCN(CCCCOc1ccc3c(c1)NC(=O)CC3)C2` [Compound 34, 7-(4-(2-ethyl-6,7-dihydro-2H-pyrazolo[4,3-c]pyridin-5(4H)-yl)butoxy)-3,4-dihydroquinolin-2(1H)-one], in assay [1], the IC50 is over 10000 nM and the Emax is under 10%. In addition, in assay [2], the IC50 lay in the range of 100 to 1000 nM and the Emax was in the range of 50 to 75%. Further, in assay [3], the EC50 is 100 to 1000 nM and the Emax was 50 to 75%.
On to `O=C1CCc2ccc(OCCCCN3CCc4nn(-c5ccccc5F)cc4C3)cc2N1` [Compound 35, 7-(4-(2-(2-fluorophenyl)-6,7-dihydro-2H-pyrazolo[4,3-c]pyridin-5(4H)-yl)butoxy)-3,4-dihydroquinolin-2(1H)-one], for which, in assay [1], the IC50 was in the range of 10 to 100 nM and the Emax is over 75%. Besides, in assay [2], the IC50 is over 10000 nM and the Emax is under 10%. In assay [3], the EC50 was over 10000 nM and the Emax is under 10%.
For the compound `O=C1CCc2ccc(OCCCCN3CCc4nn(-c5cccc(F)c5)cc4C3)cc2N1` [Compound 36, 7-(4-(2-(3-fluorophenyl)-6,7-dihydro-2H-pyrazolo[4,3-c]pyridin-5(4H)-yl)butoxy)-3,4-dihydroquinolin-2(1H)-one], in assay [1], the 50% inhibitory concentration (IC50) was over 10000 nM and the Emax is under 10%. In assay [2], the IC50 is under 10 nM and the Emax was over 75%. Moreover, in assay [3], the EC50 was under 10 nM and the Emax is over 75%.
With `O=C1CCc2ccc(OCCCCN3CCc4nn(-c5ccc(F)cc5)cc4C3)cc2N1` [Compound 37, 7-(4-(2-(4-fluorophenyl)-6,7-dihydro-2H-pyrazolo[4,3-c]pyridin-5(4H)-yl)butoxy)-3,4-dihydroquinolin-2(1H)-one], in assay [1], the IC50 fell in the range of 10 to 100 nM and the Emax is over 75%. Besides, in assay [2], the IC50 was over 10000 nM and the Emax is under 10%. In assay [3], the EC50 is over 10000 nM and the Emax was under 10%.
In the case of `O=C1CCc2ccc(OCCCCN3CCc4nn(-c5ccccn5)cc4C3)cc2N1` [Compound 38, 7-(4-(2-(pyridin-2-yl)-6,7-dihydro-2H-pyrazolo[4,3-c]pyridin-5(4H)-yl)butoxy)-3,4-dihydroquinolin-2(1H)-one], the values for the IC50 in assay [1] and in assay [2] were 10 to 100 nM and under 10 nM, respectively. Besides, the Emax was 25 to 50% in assay [1], 50 to 75% in assay [2] and 25 to 50% in assay [3]. The compound further gave an EC50 in assay [3] of under 10 nM.
